According to patent US20240108734A1, “METHODS FOR TREATING AND AMELIORATING CANCER” (The Regents of the University of California, priority 2021, published 2024):
Entries after “also recorded” stand apart in the source; their conditions may differ.

Key:
ABL1 = ABL1 expression in human CD45+ cells from treated BC CML mice; type: in vivo; settings: p=0.02
Source text: FIG. 5F. Boxplot depicting Log 2 (cpm) expression of ABL1 by RNA-seq analysis of human CD45^+ cells isolated from vehicle (red), mismatch control (blue) and imetelstat (green) treated BC CML mouse cells (Student's t-test: vehicle: p=0.037, imetelstat: p=0.02).

BC CML CD34+ cells (LSC) = test: SL/M2 stromal co-culture, clonogenic survival and self-renewal (replating) assays, BC CML; type: cell-based, human; settings: imetelstat monotherapy, 1 to 10 μM, vs mismatch control
Source text: (§1) Lentiviral human wild-type and mutant ADAR1^E912A (pCDH-EF1-T2A-copGFP) and shRNA targeting ADAR1 were produced according to published protocols^27,37. In Vitro MPN-SPC and LSC Survival and Self-Renewal Assays with Imetelstat To assess MPN progenitor and LSC survival and self-renewal in vitro, human primary CD34^+ cells selected from BC CML (n=5), MF (n=9) or age matched normal bone marrow (a-NBM, n=4) were co-cultured with SL/M2 stromal cells for 7-14 days, and then treated with imetelstat alone or combined with dasatinib for BC CML or Pacritinib for MF. Colony forming and replating assays were performed as previously described^32.
(§2) To assess MPN progenitor and LSC survival and self-renewal in vitro, human primary CD34^+ cells selected from BC CML (n=5), MF (n=9) or age matched normal bone marrow (a-NBM, n=4) were co-cultured with SL/M2 stromal cells for 7-14 days, and then treated with Imetelstat alone or combined with dasatinib for BC CML or Pacritinib for MF. Colony forming and replating assays were performed as previously described^32,33.
FIG. 3A. A schematic illustration of SL/M2 stromal co-cultures established to quantify in vitro MPN-SPC and LSC survival and self-renewal. Human primary CD34^+ cells selected from BC CML (n=5), MF (n=9) or age matched normal bone marrow (a-NBM, n=4) were co-cultured with SL/M2 stromal cells for 7-14 days. […]

MF CD34+ cells (pre-LSC) = test: SL/M2 stromal co-culture, clonogenic survival and self-renewal (replating) assays, myelofibrosis; type: cell-based, human; settings: imetelstat only (5 uM in b222), compared with normal bone marrow; for self-renewal capacity (replating) of MF CD34+ cells (pre-LSC): p<0.001; for survival of MF CD34+ cells (pre-LSC): p<0.01
Source text: as §1, §2
FIG. 3A. A schematic illustration of SL/M2 stromal co-cultures established to quantify in vitro MPN-SPC and LSC survival and self-renewal. Human primary CD34^+ cells selected from BC CML (n=5), MF (n=9) or age matched normal bone marrow (a-NBM, n=4) were co-cultured with SL/M2 stromal cells for 7-14 days. While BC CML stromal co-cultures were treated with increasing doses of imetelstat with or without dasatinib, MF stromal co-cultures were treated with imetelast with or without pacritinib.
FIG. 3D. Imetelstat was used at concentrations ranging from 1 to 10 μM to treat aged normal bone marrow (aNBM, n=4, dark blue) compared with myelofibrosis (MF, light blue, n=9) in stromal co-cultures followed by clonogenic survival (upper panel) and self-renewal (lower panel) assays (**p<0.01, ***p<0.001).
FIG. 3E. Imetelstat was used at concentrations ranging from 1 to 10 μM alone or in combination with pacritinib (5 nM) to treat aged normal bone marrow (a-NBM, n=4, blue) compared with MF (green, n=9) in stromal co-cultures followed by clonogenic survival (upper panel) and self-renewal (lower panel) assays.

beta-catenin = test: FACS analysis of beta-catenin in normal HSC engrafted mouse model; type: in vivo; settings: human CD45+ cells and CD34+CD38- stem cells in BM
Description: To assess WNT/beta-catenin activation in response to ADAR1 upregulation, a lentiviral TCF/LEF reporter was utilized in human blast crisis CML cells, K562^26. Lentiviral pCDH backbone, ADAR1^WT, shControl, and shADAR1 K562 stable cell lines were transduced with pGreenFire1-TCF/LEF1 reporter (SBI) lentivirus for 72-hours prior to CellTiter-Glo and One-Glo luciferase assays (Promega). A minimum of 50,000 cells were plated in duplicate, lysed according to the manufacturer's protocol, and measured using preloaded protocols on a Promega GloMax Discover Microplate Reader. One-Glo luciferase readouts were normalized to corresponding CellTiter-Glo values. Activated beta-catenin levels in HSC and HPCs were also quantified using a MACS Quant instrument following staining of cells with Viability Near-IR, Lineage PE-Cy5, CD45 BV510, CD34 BV421, CD38 PE-Cy7, GFP, and beta-catenin AF647 antibodies (Becton Dickinson, Inc). […] Mean fluorescence intensity (MF) of active beta-catenin in human CD45+ cells, HSCs (CD45^+CD34^+CD38^− Lin) and HPCs (CD45^+CD34^+CD38^+Lin^−) derived from engrafted bone marrow and spleen was determined with a Miltenyi Biotec MACS Quant flow cytometer.

[1] = Tolerability (change in percent body weight) in xenograft models; type: in vivo; settings: mice transplanted with CB, BC CML or MF progenitors
Source text: FIG. 8A graphically illustrates data showing the change in percent body weight in mice transplanted with cord blood (CB) treated with vehicle (black), mismatch control (blue) or imetelstat (red);
FIG. 8B graphically illustrates data showing the change in percent body weight in mice transplanted with BC CML treated with vehicle (black), mismatch control (blue) or imetelstat (red);
FIG. 8C graphically illustrates data showing the change in percent body weight in mice transplanted with myelofibrosis (MF) progenitors treated with vehicle (black), mismatch control (blue) or imetelstat (red);

Substance: imetelstat
- ABL1 expression (ABL1): significantly reduced
- BC CML LSC replating (self-renewal) capacity (BC CML CD34+ cells (LSC)): ineffective
- self-renewal capacity (replating) of MF CD34+ cells (pre-LSC) (MF CD34+ cells (pre-LSC)): decrease
- self-renewal capacity (replating) of MF CD34+ cells (pre-LSC) (MF CD34+ cells (pre-LSC); listed as Imetelstat): significantly inhibited
- survival of MF CD34+ cells (pre-LSC) (MF CD34+ cells (pre-LSC)): decrease
- survival of MF CD34+ cells (pre-LSC) (MF CD34+ cells (pre-LSC); listed as Imetelstat): significantly inhibited
- beta-catenin expression / activity in normal HSC engrafted mice (beta-catenin): no significant decrease; also recorded: does not reduce; also recorded: no significant difference
- tolerability [1]: well tolerated
